Experimental data published in patent US20260272797A1, “FRAGRANCE COMPOSITION” (GIVAUDAN SA, priority 2023, published 2026).

Key:
[1] = Gas-phase evaluation of each fragrance ingredient alone against model scalp malodour, MiniVAS device, panel of 5 experts; conditions: for Scalp MOC of ingredient alone: expert description
Procedure: In a first set of experiments, the scalp malodour counteractancy of 173 fragrance ingredients was evaluated by panel of 5 experts.
The evaluation was performed in the gas phase, using a MiniVAS™ device (ex Givaudan SA). This device is a regulating means that comprises a plurality of channels adapted to convey a gas (more particularly air) through cartridges, each cartridge containing a fragrance ingredient adsorbed onto an adsorbent. The air flows coming from the different cartridges are admixed and conveyed to the user's nose through a tubing fitted with an olfactometer funnel. Thus, by opening and closing channels and maintaining these opened and closed, respectively, for predetermined times, the regulating means can determine which fragrance ingredients and how much thereof are conveyed and when, and thus alter the nature of the fragrance perceived by the user. A description of the device can be found in WO2014154909A1, page 2, line 11 to page 4, line 7, and in H. R. Gygax et al. “Evolution of Real Time Aroma Creation at Givaudan”, poster presented at the 12th Weurman Flavour Research Symposium. July 2008. Interlaken, Switzerland; DOI: 10.13140/2.1.1924.0641.
For the sake of the present evaluation, one cartridge contained the scalp malodour (in the form of a model malodour) and each fragrance ingredient was assigned to another cartridge. The malodour counteractancy of each fragrance ingredient was evaluated separately against the scalp malodour. A constant air flow rate of 50 ml/min was used for all measurements. The perceived malodour intensity, as well as the fragrance intensity, were ranked on a scale of 1-5 (1=barely noticeable, 2=weak, 3=medium, 4=strong and 5=very strong).

[2] = Impact of fragrance ingredients on scalp malodour counteractancy of 80 fragrance compositions (Example 2 protocol, statistical presence); conditions: series of 80 fragrance compositions
Procedure: In a second set of experiments, the impact of these fragrance ingredients on the scalp malodour counteractancy of a fragrance composition was assessed. The scalp malodour counteractancy of a series of 80 fragrance compositions was assessed by performing the evaluation protocol described in Example 2. […] Ingredients that were statistically more present in fragrances having a high malodour counteractancy were assigned a positive status, whereas ingredients that were statistically more present in compositions having a low malodour counteractancy were assigned a negative status.

[3] = Table 3, air flow 50 ml/min, scale of 1-5 (1=barely noticeable, 5=very strong)
[4] = Table 4, air flow 50 ml/min, scale of 1-5

Row | Structure (SMILES) | MO intensity [1, 3] | Impact on scalp MOC of fragrance composition ([2]; Table 3) | Scalp MOC of ingredient alone ([1]; Table 3, gas phase) | MO intensity [1, 4] | Scalp MOC of ingredient alone ([1]; Table 4, gas phase) | Impact on scalp MOC of fragrance composition ([2]; Table 4)
1 | CC(C)=CCC(C)C1CC1(C)CO (stereo not shown) [1-methyl-2-(5-methylhex-4-en-2-yl)cyclopropylmethanol] | 2.7 | Positive |  |  |  | 
2 | CC1=CC[C@H]2C(C1)C1CC2[C@@]2(C1)OC2C (stereo partly drawn) [(2R,8aS)-3′,6-dimethyl-3,4,4a,5,8,8a-hexahydro-1H-spiro[1,4-methanonaphthalene-2,2′-oxirane]] | 1 | Positive | No effect |  |  | 
3 | O=C1CCC/C=C\CCCCCCCCCC1 [(Z)-cyclohexadec-5-enone] |  |  |  | 1 | Enhances MO | Negative
4 | CCCCC1COCC(C)C1OC(C)=O (stereo not shown) [3-butyl-5-methyltetrahydro-2H-pyran-4-yl acetate] |  |  |  | 1 |  | Negative
5 | CC/C=C\CC1=C(C)CCC1=O [(Z)-3-methyl-2-(pent-2-en-1-yl)cyclopent-2-enone] |  |  |  | 1.8 | Low coverage | Negative
6 | CC(=O)OCc1ccccc1 [benzyl acetate] |  |  |  | 0 | Enhances MO | Negative
7 | CC(=O)c1ccccc1 [1-phenylethanone] | 5 | Positive |  |  |  | 
8 | CC(=O)C1CC/C=C\C(C)C(C)/C=C\C/C=C/1C (stereo not shown) [1-((2E,5Z,9Z)-2,7,8-trimethylcyclododeca-2,5,9-trien-1-yl)ethanone] | 1 | Positive | No effect |  |  | 
9 | CC(=O)OCCC1=CCC2CC1C2(C)C (stereo not shown) [2-(6,6-dimethylbicyclo[3.1.1]hept-2-en-2-yl)ethyl acetate] | 2 | Positive |  |  |  | 
10 | OCCc1ccccc1 [2-phenylethanol] |  |  |  | 3.2 |  | Negative
11 | C/C(=C\CCC=O)CCCC(C)(C)O [(4E)-9-hydroxy-5,9-dimethyl-4-decenal] | 1 | Positive | No effect |  |  | 
12 | CCCCCCC(=O)OCC [ethyl heptanoate] | 1 | Positive | No effect |  |  | 
13 | N#CC(=C1CCCCC1)c1ccccc1 [2-cyclohexylidene-2-phenylacetonitrile] |  |  |  | 1 |  | Negative
14 | CC(=O)OCCc1ccccc1 [2-phenylethyl acetate] |  |  |  | 1 |  | Negative
15 | CC1(CO)CC1CC1CC2CC2(C)C1(C)C (stereo not shown) [1-methyl-2-((1,2,2-trimethylbicyclo[3.1.0]hexan-3-yl)methyl)cyclopropyl)methanol] | 3.3 | Positive |  |  |  | 
16 | CC(C)=CCCC1=CCC(C=O)CC1 (stereo not shown) [4-(4-methylpent-3-en-1-yl)cyclohex-3-enecarbaldehyde] |  |  |  | 1 |  | Negative
17 | CC(=O)OC1CCCCC1C(C)(C)C (stereo not shown) [2-(tert-butyl)cyclohexyl acetate] | 2 | Positive |  |  |  | 
18 | C/C=C/C(=O)/C(C)=C(\C)C(C)C [(2E,5E)-5,6,7-trimethylocta-2,5-dien-4-one] | 1.5 | Positive |  |  |  | 
19 | CCOC(=O)C1OC1(C)c1ccccc1 (stereo not shown) [ethyl methyl phenyl glycidate] |  |  |  | 1 |  | Negative
20 | C=CC(C)(O)CC/C=C(\C)CCC=C(C)C (stereo not shown) [(E)-3,7,11-trimethyldodeca-1,6,10-trien-3-ol] | 1 | Positive | No effect |  |  | 
21 | C/C=C(\CC)CCC(C)CCO (stereo not shown) [(E)-6-ethyl-3-methyloct-6-en-1-ol] | 3 | Positive |  |  |  | 
22 | CCC(=O)C(C)CC=C(C)C (stereo not shown) [4,7-dimethyloct-6-en-3-one] |  |  |  | 4 |  | Negative
23 | CC(=O)O[C@H]1CC2CC1[C@H]1CC=C[C@@H]21 (stereo partly drawn) [(3aR,6S,7aS)-3a,4,5,6,7,7a-hexahydro-1H-4,7-methanoinden-6-yl acetate] |  |  |  | 3.8 |  | Negative
24 | CCCCCCC#CC(=O)OC [methyl non-2-ynoate] | 1.8 | Positive |  |  |  | 
25 | CC1=CC(C)C(C=O)CC1 (stereo not shown) [2,4-dimethylcyclohex-3-ene-1-carbaldehyde] |  |  |  | 1 |  | Negative
